We go through nine compounds from paper PMC7409137, “Characterisation of Ovarian Cancer Cell Line NIH-OVCAR3 and Implications of Genomic, Transcriptomic, Proteomic and Functional DNA Damage Response Biomarkers for Therapeutic Targeting” (Cancers, 2020).

In series [1] the test system is NIH-OVCAR3 cells. In words: cells. On the procedure: (§1) NIH-OVCAR3 cells were exposed to (A) VE-821 for 48 h, (B) carboplatin for 24 h or (C) rucaparib for 24 h. Media was replaced with drug free media for 21 days to allow colony formation. Data are the mean and standard deviation of at least three independent experiments. (D) Sensitivity of an additional 12 ovarian cancer cell lines to the three drugs was calculated in the same way and LC50 values were calculated. […] Data are pooled from 3 independent experiments per cell line.
(§2) Cells were plated into 6-well tissue culture dishes at low densities and allowed to adhere for 24 h before being treated for 24 h with carboplatin (0–50 µM) or rucaparib (0–30 µM), or 48 h with VE-821 (0–30 µM). DMSO concentration was kept constant at 0.5%, including no-drug control, for drugs dissolved in DMSO. Following treatment, the medium was removed and replaced with fresh drug-free medium to allow colony formation. The cells were fixed in methanol: acetic acid (3:1 v/v) and stained with 0.4% crystal violet. Colonies were counted and the % survival for each treatment was calculated from the relative plating efficiency of treated versus untreated controls.

The subject of series [2] is 12 ovarian cancer cell lines. In words: Colony formation assay, panel of 12 other ovarian cancer cell lines (mean). The procedure: NIH-OVCAR3 cells were exposed to (A) VE-821 for 48 h, (B) carboplatin for 24 h or (C) rucaparib for 24 h. Media was replaced with drug free media for 21 days to allow colony formation. Data are the mean and standard deviation of at least three independent experiments. […] […] Data are pooled from 3 independent experiments per cell line.
as §2

The next series concerns p53. The format is cell-based, human.
Series [3] relates to HRR competent (HRC) cell lines. Kind of series: Colony formation assay, HRR competent cell lines. The procedure: as §1, §2
Series [4] concerns BRCA1 mutant HRR defective (HRD) cell lines (COV362 and UWB1.289). In words: Colony formation assay, HRR defective cell lines. The procedure: as §1, §2
The next series relates to p53 mutant CLL cells. Details: method as in PMID 26312880. The following applies: cited from earlier work.
Series [5] concerns panel of cell lines, including the HCT116 p53 isogenic pair. Set-up: method as in PMID 28062704. The conditions noted are these: panel of cell lines incl. HCT116 p53 isogenic pair; cited from earlier work.
The subject of series [6] is M059J and M059J-Fus1 cells. Set-up: method as in PMID 22576130. The conditions noted are these: cited from earlier work.
Series [7] deals with T1, ATR (Homo sapiens, UniProt Q13535).
T1 construct: NIH-OVCAR3 cells and 9 other ovarian cancer cell lines were exposed to 4NQO ± VE-821 as indicated for 1 hr before western blotting; endogenous in cells
T1 sequence (Q13535 whole entry): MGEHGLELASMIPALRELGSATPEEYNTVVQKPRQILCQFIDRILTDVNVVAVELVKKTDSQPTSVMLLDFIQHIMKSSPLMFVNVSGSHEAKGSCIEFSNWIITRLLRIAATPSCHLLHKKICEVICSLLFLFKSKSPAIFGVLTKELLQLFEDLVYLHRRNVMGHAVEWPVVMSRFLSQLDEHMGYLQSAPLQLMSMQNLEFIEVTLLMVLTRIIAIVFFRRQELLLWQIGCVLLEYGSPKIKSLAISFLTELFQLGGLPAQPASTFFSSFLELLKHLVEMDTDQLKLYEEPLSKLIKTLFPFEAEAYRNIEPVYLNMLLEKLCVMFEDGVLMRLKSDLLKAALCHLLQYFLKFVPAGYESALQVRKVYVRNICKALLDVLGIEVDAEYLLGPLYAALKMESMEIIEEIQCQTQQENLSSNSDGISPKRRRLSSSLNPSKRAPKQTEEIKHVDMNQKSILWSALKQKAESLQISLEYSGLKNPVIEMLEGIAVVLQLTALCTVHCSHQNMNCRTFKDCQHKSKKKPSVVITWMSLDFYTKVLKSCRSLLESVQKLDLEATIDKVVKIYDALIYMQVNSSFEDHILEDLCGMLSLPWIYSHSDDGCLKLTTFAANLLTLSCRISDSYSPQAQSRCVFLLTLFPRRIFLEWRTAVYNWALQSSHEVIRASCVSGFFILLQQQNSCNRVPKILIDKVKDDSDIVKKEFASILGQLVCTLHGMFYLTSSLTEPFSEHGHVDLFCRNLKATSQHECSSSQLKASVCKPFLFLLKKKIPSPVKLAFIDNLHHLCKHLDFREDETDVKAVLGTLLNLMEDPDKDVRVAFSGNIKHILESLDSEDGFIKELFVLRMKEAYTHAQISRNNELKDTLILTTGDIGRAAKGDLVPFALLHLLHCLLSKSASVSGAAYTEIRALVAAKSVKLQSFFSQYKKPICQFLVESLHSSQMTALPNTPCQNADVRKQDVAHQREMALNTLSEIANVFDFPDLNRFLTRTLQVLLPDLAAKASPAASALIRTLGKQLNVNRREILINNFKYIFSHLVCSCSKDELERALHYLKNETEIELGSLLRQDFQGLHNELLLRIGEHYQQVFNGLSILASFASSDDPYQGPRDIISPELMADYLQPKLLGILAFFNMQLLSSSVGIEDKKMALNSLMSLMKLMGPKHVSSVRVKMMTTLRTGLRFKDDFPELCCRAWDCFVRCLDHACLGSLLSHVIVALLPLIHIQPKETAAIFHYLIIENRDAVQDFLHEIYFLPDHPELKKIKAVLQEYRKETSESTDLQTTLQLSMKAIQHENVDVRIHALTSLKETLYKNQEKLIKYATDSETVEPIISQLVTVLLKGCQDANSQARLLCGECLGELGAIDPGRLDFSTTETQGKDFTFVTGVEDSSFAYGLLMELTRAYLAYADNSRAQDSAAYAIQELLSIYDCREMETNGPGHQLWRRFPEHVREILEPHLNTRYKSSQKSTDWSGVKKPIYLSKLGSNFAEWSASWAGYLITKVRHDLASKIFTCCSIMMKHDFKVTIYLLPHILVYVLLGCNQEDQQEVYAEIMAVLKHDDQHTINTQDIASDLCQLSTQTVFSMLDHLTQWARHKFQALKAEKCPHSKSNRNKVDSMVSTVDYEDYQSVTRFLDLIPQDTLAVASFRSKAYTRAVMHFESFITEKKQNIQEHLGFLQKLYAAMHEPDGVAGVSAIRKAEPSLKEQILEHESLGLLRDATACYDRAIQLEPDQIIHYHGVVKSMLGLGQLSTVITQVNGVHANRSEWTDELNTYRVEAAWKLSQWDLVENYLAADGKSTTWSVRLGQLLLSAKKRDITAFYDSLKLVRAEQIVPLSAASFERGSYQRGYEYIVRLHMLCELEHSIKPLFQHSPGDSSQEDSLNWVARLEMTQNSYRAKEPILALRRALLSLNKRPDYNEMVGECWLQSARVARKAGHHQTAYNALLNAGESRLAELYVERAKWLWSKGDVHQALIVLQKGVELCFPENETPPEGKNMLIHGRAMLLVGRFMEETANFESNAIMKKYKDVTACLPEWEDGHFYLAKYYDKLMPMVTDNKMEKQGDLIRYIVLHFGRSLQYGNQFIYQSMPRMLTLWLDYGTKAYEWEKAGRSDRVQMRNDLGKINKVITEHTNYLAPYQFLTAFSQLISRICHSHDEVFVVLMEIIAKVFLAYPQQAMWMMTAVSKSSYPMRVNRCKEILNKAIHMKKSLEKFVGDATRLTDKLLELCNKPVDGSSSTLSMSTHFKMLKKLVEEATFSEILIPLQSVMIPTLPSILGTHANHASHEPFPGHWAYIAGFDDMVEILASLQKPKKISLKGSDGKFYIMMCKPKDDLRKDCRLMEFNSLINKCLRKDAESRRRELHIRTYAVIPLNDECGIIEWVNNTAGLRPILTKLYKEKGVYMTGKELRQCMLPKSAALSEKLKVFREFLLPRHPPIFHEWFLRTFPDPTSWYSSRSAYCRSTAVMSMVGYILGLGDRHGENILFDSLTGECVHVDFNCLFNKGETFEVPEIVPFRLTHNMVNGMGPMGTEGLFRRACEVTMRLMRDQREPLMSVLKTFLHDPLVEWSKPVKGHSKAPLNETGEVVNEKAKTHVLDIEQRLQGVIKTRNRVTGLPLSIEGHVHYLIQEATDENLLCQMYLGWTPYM
T1 sequence (Q8WXE1 whole entry partner): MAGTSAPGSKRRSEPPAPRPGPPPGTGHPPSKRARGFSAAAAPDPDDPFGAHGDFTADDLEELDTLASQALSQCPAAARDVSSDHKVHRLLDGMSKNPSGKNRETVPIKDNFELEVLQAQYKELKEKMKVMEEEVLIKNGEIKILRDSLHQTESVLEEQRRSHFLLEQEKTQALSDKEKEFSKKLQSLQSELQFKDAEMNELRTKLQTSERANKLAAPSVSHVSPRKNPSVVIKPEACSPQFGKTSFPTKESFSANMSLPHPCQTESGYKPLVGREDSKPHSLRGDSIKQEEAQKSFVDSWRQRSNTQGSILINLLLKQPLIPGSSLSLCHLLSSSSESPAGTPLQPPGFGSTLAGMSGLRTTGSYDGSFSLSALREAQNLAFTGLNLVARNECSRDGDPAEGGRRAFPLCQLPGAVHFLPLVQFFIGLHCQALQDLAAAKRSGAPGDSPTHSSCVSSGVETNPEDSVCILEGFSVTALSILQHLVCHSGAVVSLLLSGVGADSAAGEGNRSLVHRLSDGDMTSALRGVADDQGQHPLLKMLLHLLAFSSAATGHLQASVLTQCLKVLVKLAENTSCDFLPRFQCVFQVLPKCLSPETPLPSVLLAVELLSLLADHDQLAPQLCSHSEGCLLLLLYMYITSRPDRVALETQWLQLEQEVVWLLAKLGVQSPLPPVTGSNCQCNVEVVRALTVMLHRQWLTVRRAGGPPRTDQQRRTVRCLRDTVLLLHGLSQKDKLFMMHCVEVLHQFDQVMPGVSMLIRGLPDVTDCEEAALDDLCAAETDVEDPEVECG
Kind of series: ATR inhibition by western blot of pCHK1Ser345 after 4NQO, 9 other ovarian cancer cell lines. The format is cell-based. The following applies: mean of 9 ovarian cell lines. The procedure:
(§3) (A) NIH-OVCAR3 cells and 9 other ovarian cancer cell lines were exposed to 4NQO ± VE-821 as indicated for 1 hr before western blotting. Chemiluminescence was quantified using Syngene software and expression of pCHK1Ser345 was normalised to vinculin expression. Western blot image is from a single representative experiment with pooled data from 3 independent experiments per cell line used to calculate the mean VE-821 IC50 and percentage inhibition at 1 µM VE-821. (B) Bar chart represents log-transformed read counts obtained from RNA-Seq data for each gene normalized to ACTB mRNA expression for NIH-OVCAR3 cells (black bars) and the mean mRNA expression of each gene across 12 cell lines (white bars) where each black dot represents one cell line. (C) Bar chart represents protein expression normalised to Ponceau-s staining calculated using ImageJ software in NIH-OVCAR3 cells (black bars) and the mean protein expression of each gene across 12 cell lines (white bars) where each black dot represents one cell line. Data are from a single experimental repeat. [PRKDC: DNA-PKcs, XRCC5: Ku80, XRCC6: Ku70]. […] Western blot of baseline protein expression in panel of ovarian cancer cell lines can be found at Figure S5.
For orientation: In western blotting, separated proteins are transferred to a membrane and probed.

Series [8] addresses T1, ATR. Kind of series: ATR inhibition by western blot of pCHK1Ser345 after 4NQO, NIH-OVCAR3. It is filed as cell-based. The procedure: as §3
Series [9] has as its system HCT116 p53 isogenic cell line pair. Details: method as in PMID 30127241. The following applies: cited from earlier work.
The test system of series [10] is NIH-OVCAR3 cells. Kind of series: Immunofluorescence based γH2AX-RAD51 foci assay. The format is cell-based, human. The following applies: 10 µM rucaparib, 48 h vs 0.5% DMSO. On the procedure: Figure 4 Assessment of HRR and NHEJ in the NIH-OVCAR3 cells. (A) Cells were exposed to 0.5% DMSO (control) or 10 µM rucaparib for 48 h before being fixed and stained as per the protocol outlined in the methods. After imaging, the number of γH2AX and RAD51 foci per nucleus was calculated using ImageJ software, data points represent number of foci in an individual nucleus. The fold change in number of foci per nuclei between control and 10 µM rucaparib was then calculated. (B) Cells were co-transfected with pDRGFP and pCBASceI plasmids and analysed for the presence of GFP-positive cells 48 h post-transfection. % HRR activity was calculated by normalizing to the untransfected control. […] (C) Cells were co-transfected with pimEJ5GFP and pCBASceI plasmids and analysed for the presence of GFP-positive cells 48 h post-transfection. % NHEJ activity was calculated by normalizing to the untransfected control. […] [* p < 0.05; ** p < 0.005; **** p < 0.0001 (unpaired t-test)].
HRR was assessed by immunofluorescence. Cells were treated for 48 h with 10 μM rucaparib with 0.5% DMSO concentration for the untreated and treated cells. […] The number of γH2AX and RAD51 foci in each cell was quantified using ImageJ software and data was plotted using GraphPad Prism (GraphPad, San Diego, CA, USA).

The mark [11] stands for this setting: ratio of LC50, colony formation.
Where [12] appears, read: Homo sapiens, 48 h, read-out: VE-821 LC50 ± SD.
[13] abbreviates: Homo sapiens, 24 h, read-out: Rucaparib LC50 ± SD.

Read-outs that look alike come from different tables or passages of the source.

With `Nc1ccn([C@@H]2O[C@H](CO)[C@@H](O)C2(F)F)c(=O)n1` [Gemcitabine, gemcitabine], the CC50 in the series on NIH-OVCAR3 cells [1] (Homo sapiens, OVCAR-3, read-out: Gemcitabine LC50 ± SD) is 41.5 ± 1.2 nM. In addition, the Gemcitabine LC50 ± SD in series [2] is 28.7 nM.
Consider `COc1ccc(C2=N[C@@H](c3ccc(Cl)cc3)[C@@H](c3ccc(Cl)cc3)N2C(=O)N2CCNC(=O)C2)c(OC(C)C)c1` [Nutlin-3], for which the “Induction of MDM2 and p21 (indicators of p53 activation)” value in the series with p53 was “no induction of either MDM2 or p21”.
In the case of `N.N.O=C([O-])C1(C(=O)[O-])CCC1.[Pt+2]` [Carboplatin], the CC50 was found to be 7020 ± 7090 nM in [3] (read-out: Carboplatin LC50 ± SD, HRC cell lines, 24 h exposure, colony formation); 1290 ± 340 nM in the series on NIH-OVCAR3 cells [1] (read-out: Carboplatin LC50 ± SD, NIH-OVCAR3, 24 h exposure, then drug free media 21 days, colony formation); 1520 ± 940 nM in series [4] (read-out: Carboplatin LC50 ± SD, HRD cell lines, 24 h exposure, colony formation); 6120 ± 6180 nM in series [2] (read-out: Carboplatin LC50 ± SD, mean of 12 ovarian cell lines, 24 h exposure, colony formation). Also, the “Fold more sensitive, NIH-OVCAR3 compared to the 12 ovarian cancer cell lines” value in the series with NIH-OVCAR3 cells [1] (setting [11]) is on record as 5 fold.
Regarding `C[C@@H]1COCCN1c1cc(C2([S@](C)(=N)=O)CC2)nc(-c2cc[nH]c3nccc2-3)n1` [AZD6738], the “Cytotoxicity in relation to p53 status” value in the series on p53 mutant CLL cells was “selectively cytotoxic towards p53 mutant CLL cells”. In series [5], the “Sensitivity in relation to p53 status” value is on record as “independent of p53 status”.
Turning to `COc1cccc2c1C(=O)c1c(O)c3c(c(O)c1C2=O)C[C@@](O)(C(=O)CO)C[C@@H]3O[C@H]1C[C@H](N)[C@H](O)[C@H](C)O1` [Doxorubicin, doxorubicin], in the series with NIH-OVCAR3 cells [1] (100 nM doxorubicin), the “Fold higher percentage cell survival, NIH-OVCAR3 vs mean of the 12 ovarian cancer cell lines” value is given as 1.4 fold. In addition, the CC50 in the series with NIH-OVCAR3 cells [1] (Homo sapiens, OVCAR-3, read-out: Doxorubicin LC50 ± SD) was determined as 55 ± 1.97 nM; in series [2] (Homo sapiens, 24 h, read-out: Doxorubicin LC50 ± SD), 44.5 ± 15.5 nM. The “percentage cell survival at 100 nM” value in the series with NIH-OVCAR3 cells [1] (NIH-OVCAR3, 100 nM doxorubicin) is recorded as ~ 17%; in [6] (M059J-Fus1 cells, 100 nM doxorubicin), ~ 30%. For the same compound, in [6], the “Fold more sensitive, NHEJ-deficient M059J vs NHEJ-proficient M059J-Fus1 cells” value is listed as 20 fold. In addition, the “mean percentage cell survival at 100 nM” value in [2] (mean of the 12 ovarian cancer cell lines, 100 nM doxorubicin) is ~ 12%.
In the case of `CS(=O)(=O)c1ccc(-c2cnc(N)c(C(=O)Nc3ccccc3)n2)cc1` [VE-821], the CC50 in series [3] (setting [12]) worked out at 1680 ± 1190 nM; in the series on NIH-OVCAR3 cells [1] (Homo sapiens, OVCAR-3, read-out: VE-821 LC50 ± SD), 17900 ± 4560 nM; in [4] (setting [12]), 1010 ± 500 nM; in [2] (setting [12]), 1580 ± 1120 nM. Besides, the “Fold more resistant, NIH-OVCAR3 compared to panel of 12 ovarian cancer cell lines” value in the series with NIH-OVCAR3 cells [1] (setting [11]) was 11 fold. In addition, the inhibition – broadly, the drop in the measured response relative to a control, in per cent – at 1 µM on ATR [7] (1 μM VE-821, 4NQO, 1 hr, pCHK1Ser345, read-out: ATR Inhibition at 1 μM VE-821 ± SD) was determined as 78.1 ± 13.4%; on ATR [8] (OVCAR-3, 1 μM VE-821, 4NQO, 1 hr, pCHK1Ser345, read-out: ATR Inhibition at 1 μM VE-821 ± SD), 81 ± 5.29%. Further, the IC50 – broadly, the concentration that inhibits the measured activity by half – was 380 ± 200 nM at ATR [7] (4NQO ± VE-821 for 1 hr, western blot, read-out: VE-821 IC50 ± SD (ATR inhibition, pCHK1Ser345)) and 310 ± 270 nM on ATR [8] (4NQO ± VE-821 for 1 hr, western blot, normalised to vinculin, read-out: VE-821 IC50 ± SD (ATR inhibition, pCHK1Ser345)). For the same compound, in series [9], the “Difference in sensitivity to single agent between p53 isogenic cells” value is reported as “no difference in sensitivity”.
On to `CNCc1ccc(-c2[nH]c3cc(F)cc4c3c2CCNC4=O)cc1` [Rucaparib, rucaparib], for which the CC50 is 10500 ± 9610 nM in series [3] (setting [13]); 410 ± 60 nM in the series with NIH-OVCAR3 cells [1] (Homo sapiens, OVCAR-3, read-out: Rucaparib LC50 ± SD); 280 ± 70 nM in series [4] (setting [13]); 8800 ± 9580 nM in series [2] (setting [13]). The “Fold more sensitive, NIH-OVCAR3 compared to HRR competent (HRC) cell lines” value in the series on NIH-OVCAR3 cells [1] (setting [11]) is reported as 26 fold. Also, in the series on NIH-OVCAR3 cells [1] (setting [11]), the “Fold more sensitive, NIH-OVCAR3 compared to the 12 ovarian cancer cell lines” value was 21 fold. Moreover, in the series on NIH-OVCAR3 cells [10], the RAD51 foci formation result is “increase in RAD51 foci formation”. The γH2AX foci formation entry in the series on NIH-OVCAR3 cells [10] was “induction in γH2AX foci”.
`CC(=O)O[C@H]1C(=O)[C@@]2(C)[C@H]([C@H](OC(=O)c3ccccc3)[C@]3(O)C[C@H](OC(=O)[C@H](O)[C@@H](NC(=O)c4ccccc4)c4ccccc4)C(C)=C1C3(C)C)[C@]1(OC(C)=O)CO[C@@H]1C[C@@H]2O` [Paclitaxel, paclitaxel]: the CC50 turned out to be 2.71 ± 0.08 nM with NIH-OVCAR3 cells [1] (Homo sapiens, OVCAR-3, read-out: Paclitaxel LC50 ± SD) and 3.37 ± 2.41 nM in series [2] (Homo sapiens, 24 h, read-out: Paclitaxel LC50 ± SD).
Consider `CC[C@@]1(O)C(=O)OCc2c1cc1n(c2=O)Cc2cc3c(CN(C)C)c(O)ccc3nc2-1` [Topotecan, topotecan], for which the CC50 with NIH-OVCAR3 cells [1] (Homo sapiens, OVCAR-3, read-out: Topotecan LC50 ± SD) amounted to 7.2 ± 0.36 nM; in series [2] (Homo sapiens, 24 h, read-out: Topotecan LC50 ± SD), 15.6 ± 9.32 nM.
